Experimental data reported in ChEMBL document CHEMBL5360561, “Design, synthesis and biological evaluation of fluorinated selective estrogen receptor degraders (FSERDs) --- A promising strategy for advanced ER positive breast cancer” (Eur J Med Chem, 2023).
Active and inactive are the calls of the source. The calls are words filed in the database; no cut-off is given here.

Legend:
[1] = Plasma concentration in ICR mouse at 100 mg/kg, po and measured after 1 hrs by LC-MS analysis; assay type: ADME, organism-based
[2] = Plasma concentration in ICR mouse at 100 mg/kg, po and measured after 0.5 hrs by LC-MS analysis; assay type: ADME, organism-based
MCF7 [3] = assay: Antiproliferative activity against human MCF7 cells assessed as cell growth inhibition incubated for 5 days by MTT assay; assay type: functional, cell-based; conditions: MCF7, 120 h
MCF7 [4] = assay: Induction of ER degradation in human MCF7 cells at 10 uM incubated for 24 hrs by Western blot analysis; assay type: cell-based
Ishikawa = assay: Antiproliferative activity against human Ishikawa cells assessed as cell growth inhibition at 20 uM incubated for 3 days by MTT assay; assay type: functional; conditions: for inhibition at 20 µM: 72 h, time 3 day; for inhibition: time 3.0 day
[5] = Plasma concentration in ICR mouse at 100 mg/kg, po and measured after 0.25 hrs by LC-MS analysis; assay type: ADME, organism-based
MCF7 [6] = assay: Induction of cell cycle arrest in human MCF7 cells assessed as accumulation at G0/G1 phase at 10 uM incubated for 24 hrs by flow cytometry (Rvb= 46.53 +/- 0.44%); assay type: functional
[7] = Toxicity in Sprague-Dawley rat uterus assessed as change in uterine wet weight at 30 mg/kg, po for 2 days consecutively; assay type: organism-based; conditions: in vivo, 48 h, time 2 day
MCF7 [8] = assay: Antitumor activity against human MCF7 cells xenografted in nude mouse assessed as tumor growth inhibition at 30 mg/kg,po for 30 days daily; assay type: functional, organism-based; conditions: time 30.0 day
MCF7 [9] = assay: Stabilization of ER in human MCF7 cells at 10 uM incubated for 24 hrs by Western blot analysis; assay type: cell-based
MCF7 [10] = assay: Induction of ER degradation in human MCF7 cells at 10 uM incubated for 24 hrs by DAPI staining based immunofluorescence analysis; assay type: cell-based
MCF7 [11] = assay: Induction of ER degradation in Estradiol stimulated human MCF7 cells assessed as decrease in GREB1 mRNA expression level at 1 to 10 uM incubated for 24 hrs by RT-qPCR analysis; assay type: cell-based; conditions: dose 1-10 µM
Mus musculus [12] = assay: In vivo ER degradation in mouse xenografted with human MCF7 cells assessed as reduction in PR expression level in tumor at 30 mg/kg,po for 30 days daily by […]; assay type: functional, organism-based; conditions: time 30.0 day
[13] = Toxicity in mouse xenografted with human MCF7 cells assessed as morphological changes in spleen at 30 mg/kg,po for 30 days daily by Hematoxylin and eosin staining based microscopy; assay type: organism-based; conditions: in vivo, 720 h, time 30 day
MCF7 [14] = assay: Induction of ER degradation in human MCF7 cells at 0.001 to 10 uM incubated for 24 hrs by Western blot analysis; assay type: cell-based; conditions: dose 0.001-10 µM
[15] = Toxicity in mouse xenografted with human MCF7 cells assessed as body weight loss at 30 mg/kg,po for 30 days daily; assay type: organism-based; conditions: in vivo, 720 h, time 30 day
[16] = Toxicity in mouse xenografted with human MCF7 cells assessed as morphological changes in heart at 30 mg/kg,po for 30 days daily by Hematoxylin and eosin staining based microscopy; assay type: organism-based; conditions: in vivo, 720 h, time 30 day
Mus musculus [17] = assay: In vivo ER degradation in mouse xenografted with human MCF7 cells assessed as reduction in ER expression level in tumor at 30 mg/kg,po for 30 days daily by […]; assay type: functional, organism-based; conditions: time 30.0 day
MCF7 [18] = assay: Induction of ER degradation in Estradiol stimulated human MCF7 cells assessed as decrease in PGR gene expression level at 1 to 10 uM incubated for 24 hrs by RT-qPCR analysis; assay type: cell-based; conditions: dose 1-10 µM
[19] = Toxicity in mouse xenografted with human MCF7 cells assessed as morphological changes in liver at 30 mg/kg,po for 30 days daily by Hematoxylin and eosin staining based microscopy; assay type: organism-based; conditions: in vivo, 720 h, time 30 day
[20] = Toxicity in mouse xenografted with human MCF7 cells assessed as morphological changes in kidney at 30 mg/kg,po for 30 days daily by Hematoxylin and eosin staining based microscopy; assay type: organism-based; conditions: in vivo, 720 h, time 30 day
MCF7 [21] = assay: Induction of ER degradation in human MCF7 cells transfected with ERE-luciferase plasmid assessed as decrease in estradiol induced ERE-luciferase activity by measuring luminescence at 10 uM incubated for 24 hrs by luciferase assay; assay type: cell-based
MCF7 [22] = assay: Induction of ER degradation in Estradiol stimulated human MCF7 cells assessed as decrease in TFF1 gene expression level at 1 to 10 uM incubated for 24 hrs by RT-qPCR analysis; assay type: cell-based; conditions: dose 1-10 µM
MCF7 [23] = assay: Antitumor activity against human MCF7 cells xenografted in nude mouse assessed as reduction in Ki67 expression at 30 mg/kg,po for 30 days daily by immunohistochemical analysis; assay type: functional, organism-based; conditions: time 30.0 day
MCF7 [24] = assay: Antitumor activity against human MCF7 cells xenografted in nude mouse assessed as tumor growth inhibition at 10 mg/kg,po for 30 days; assay type: functional, organism-based; conditions: time 30.0 day
MCF7 [25] = assay: Antiproliferative activity against human MCF7 cells assessed as reduction in cell viability; assay type: functional, cell-based

Compound | IC50 (MCF7 [3]) | Activity (MCF7 [4]) | inhibition at 20 µM (Ishikawa) | also measured
O=C(O)/C=C/c1ccc(Oc2c(C(=O)c3ccccc3)sc3cc(F)ccc23)cc1 | 2120 nM | Active | 8% | concentration at 1 h [1]: 15600 ng/mL; concentration at 0.5 h [2]: 16000 ng/mL; concentration at 0.25 h [5]: 9860 ng/mL
CCc1ccccc1C(=O)c1sc2cc(F)ccc2c1Oc1ccc(/C=C/C(=O)O)cc1 | 370 nM | Active | 12% | 
O=C(O)/C=C/c1ccc(-c2ccc(Oc3c(C(=O)c4ccccc4)sc4cc(F)ccc34)cc2)cc1 | 9910 nM | Active | 8% | 
CC/C(=C(\c1ccccc1)c1ccc(OCCN(C)C)cc1)c1ccccc1 [TAMOXIFEN] | 2330 nM |  | 50% | Activity (MCF7 [6]): 67.34%; Activity [7]: Toxic; Activity (MCF7 [8]): Active; Activity (MCF7 [9]): Active
Cc1cc(F)ccc1C(=O)c1sc2cc(F)ccc2c1Oc1ccc(/C=C/C(=O)O)cc1 | 360 nM | Active | 11% | 
CC(C)c1ccccc1C(=O)c1sc2cc(F)ccc2c1Oc1ccc(/C=C/C(=O)O)cc1 | 320 nM | Active |  | inhibition (Ishikawa): inactive
Cc1cc(Oc2c(C(=O)c3ccccc3)sc3cc(F)ccc23)ccc1/C=C/C(=O)O | 670 nM | Active | 19% | 
O=C(O)/C=C/c1ccc(Oc2c(C(=O)c3cccc4ccccc34)sc3cc(F)ccc23)cc1 | 8570 nM | Active | 8% | 
Cc1cc(/C=C/C(=O)O)ccc1Oc1c(C(=O)c2ccccc2)sc2cc(F)ccc12 | 3790 nM | Active | 6% | 
O=C(O)/C=C/c1ccc(Oc2c(C(=O)c3cccc(F)c3)sc3cc(F)ccc23)cc1 | 5830 nM | Active | 9% | 
O=C(O)/C=C/c1ccc(Oc2c(C(=O)c3ccc4ccncc4c3)sc3cc(F)ccc23)cc1 | > 20000 nM | Active | 36% | 
COc1ccc(C(=O)c2sc3cc(F)ccc3c2Oc2ccc(/C=C/C(=O)O)cc2)cc1 | 340 nM | Active | 53% | 
Cc1ccc(C(=O)c2sc3cc(F)ccc3c2Oc2ccc(/C=C/C(=O)O)cc2)c(C)c1 | 200 nM | Active | 13% | Activity (MCF7 [10]): Active; Activity (MCF7 [11]): Active; Activity (Mus musculus [12]): Active; Activity [13]: Non-Toxic; Activity (MCF7 [14]): Dose-Dependent Effect; Activity [15]: Non-Toxic; Activity (MCF7 [6]): 57.36%; Activity [16]: Non-Toxic; Activity (Mus musculus [17]): Active; Activity [7]: Non-Toxic; Activity (MCF7 [18]): Active; Activity (MCF7 [8]): Active; Activity [19]: Non-Toxic; Activity [20]: Non-Toxic; Activity (MCF7 [21]): Active; Activity (MCF7 [22]): Active; Activity (MCF7 [23]): Active
Cc1cccc(C)c1C(=O)c1sc2cc(F)ccc2c1Oc1ccc(/C=C/C(=O)O)cc1 | 280 nM | Active |  | inhibition (Ishikawa): inactive
O=C(O)/C=C/c1ccc(Oc2c(C(=O)c3ccc(OC(F)(F)F)cc3)sc3cc(F)ccc23)cc1 | 1440 nM | Active | 18% | 
O=C(O)/C=C/c1ccc(Oc2c(C(=O)c3ccc4ccccc4c3)sc3cc(F)ccc23)cc1 | 4740 nM | Active | 25% | 
O=C(O)/C=C/c1ccc(Oc2c(C(=O)c3ccc4occc4c3)sc3cc(F)ccc23)cc1 | 1880 nM | Active | 12% | 
C[C@]12CC[C@@H]3c4ccc(O)cc4C[C@@H](CCCCCCCCC[S+]([O-])CCCC(F)(F)C(F)(F)F)[C@H]3[C@@H]1CC[C@@H]2O (some centres not stated) [FULVESTRANT] | 0.1 nM |  |  | Activity (MCF7 [24]): Active; Activity (MCF7 [6]): 62.28%; inhibition (Ishikawa): inactive
CCNCCc1ccc(CN(CC)c2cc(OC)ccc2[C@@H]2CCc3cc(O)ccc3C2)cc1 [ELACESTRANT] |  |  |  | IC50 (MCF7 [25]): 4.2 µM
Cc1cc(C)cc(C(=O)c2sc3cc(F)ccc3c2Oc2ccc(/C=C/C(=O)O)cc2)c1 | 2590 nM | Active |  | inhibition (Ishikawa): inactive
Cc1cc(Cl)cc(C)c1C(=O)c1sc2cc(F)ccc2c1Oc1ccc(/C=C/C(=O)O)cc1 | 560 nM | Active | 6% | 
O=C(O)/C=C/c1ccc(Oc2c(C(=O)c3cccc4sccc34)sc3cc(F)ccc23)cc1 | 4280 nM | Active | 12% | 
O=C(O)/C=C/c1ccc(Oc2c(C(=O)c3ccccc3)sc3cc(F)ccc23)cc1F | 1530 nM | Active |  | inhibition (Ishikawa): inactive
Cc1cc(F)cc(C)c1C(=O)c1sc2cc(O)ccc2c1Oc1ccc(/C=C/C(=O)O)cc1 [RINTODESTRANT] |  |  |  | concentration at 0.5 h [2]: 4500 ng/mL
